Results from ChEMBL document CHEMBL1152853, “Synthesis and biological evaluation of novel symmetry bis-enediynes” (2009).
The source made the active and inactive calls. The calls are words filed in the database; no cut-off is given here.

Assays:
K562 [1] = assay: Cell cycle arrest in human K562 cells assessed as accumulation in G0/G1 phase at 50 uM after 24 hrs by flow cytometry analysis; format: functional
SNB-75 = assay: Cytotoxicity against human SNB75 cells; format: functional
SF-268 = assay: Cytotoxicity against human SF268 cells; format: functional
OVCAR-3 = assay: Cytotoxicity against human OVCAR-3 cells; format: functional
EKVX = assay: Cytotoxicity against human EKVX cells; format: functional
HCT-15 = assay: Cytotoxicity against human HCT15 cells; format: functional
K562 [2] = assay: Inhibition of G2/M phase related Cyclin B protein expression in human K562 cells at 20 uM by Western blotting analysis; format: functional, cell-based
SN12C = assay: Cytotoxicity against human SN12C cells; format: functional
OVCAR-5 = assay: Cytotoxicity against human OVCAR5 cells; format: functional
OVCAR-4 = assay: Cytotoxicity against human OVCAR4 cells; format: functional
SK-MEL-5 = assay: Cytotoxicity against human SK-MEL-5 cells; format: functional
UACC-62 = assay: Cytotoxicity against human UACC62 cells; format: functional
786-0 = assay: Cytotoxicity against human 786-0 cells; format: functional
SF-295 = assay: Cytotoxicity against human SF295 cells; format: functional
A549 = assay: Cytotoxicity against human A549 cells; format: functional
SW-620 = assay: Cytotoxicity against human SW620 cells; format: functional
NCI/ADR-RES = assay: Cytotoxicity against human NCI/ADR-RES cells; format: functional
K562 [3] = assay: Cell cycle arrest in human K562 cells assessed as accumulation in Sub-G1 phase at 50 uM after 24 hrs by flow cytometry analysis; format: functional
KM12 = assay: Cytotoxicity against human KM12 cells; format: functional
CAKI-1 = assay: Cytotoxicity against human Caki1 cells; format: functional
HT-29 = assay: Cytotoxicity against human HT-29 cells; format: functional
MDA-MB-435 = assay: Cytotoxicity against human MDA-MB-435 cells; format: functional
NCI-H460 = assay: Cytotoxicity against human NCI-H460 cells; format: functional
K562 [4] = assay: Cell cycle arrest in human K562 cells assessed as accumulation in G0/G1 phase at 20 uM after 24 hrs by flow cytometry analysis; format: functional
K562 [5] = assay: Cell cycle arrest in human K562 cells assessed as accumulation in S phase at 10 uM after 24 hrs by flow cytometry analysis; format: functional
MDA-MB-231 = assay: Cytotoxicity against human MDA-MB-231 cells; format: functional
UO-31 = assay: Cytotoxicity against human UO31 cells; format: functional
UACC-257 = assay: Cytotoxicity against human UACC257 cells; format: functional
K562 [6] = assay: Inhibition of G2/M phase related Cyclin A protein expression in human K562 cells at 20 uM by Western blotting analysis; format: functional, cell-based
K562 [7] = assay: Cell cycle arrest in human K562 cells assessed as accumulation in S phase at 20 uM after 24 hrs by flow cytometry analysis; format: functional
U-251 = assay: Cytotoxicity against human U251 cells; format: functional
MCF7 = assay: Cytotoxicity against human MCF7 cells; format: functional
NCI-H226 = assay: Cytotoxicity against human NCI-H226 cells; format: functional
MOLT-4 = assay: Cytotoxicity against human MOLT4 cells; format: functional
HCC 2998 = assay: Cytotoxicity against human HCC2998 cells; format: functional
K562 [8] = assay: Cell cycle arrest in human K562 cells assessed as accumulation in G0/G1 phase at 10 uM after 24 hrs by flow cytometry analysis; format: functional
K562 [9] = assay: Cell cycle arrest in human K562 cells assessed as accumulation in Sub-G1 phase at 10 uM after 24 hrs by flow cytometry analysis; format: functional
HL-60 = assay: Cytotoxicity against human HL60 cells; format: functional
SK-MEL-28 = assay: Cytotoxicity against human SK-MEL-28 cells; format: functional
PC-3 = assay: Cytotoxicity against human PC3 cells; format: functional
NCI-H522 = assay: Cytotoxicity against human NCI-H522 cells; format: functional
K562 [10] = assay: Cell cycle arrest in human K562 cells assessed as accumulation in G2/M phase at 50 uM after 24 hrs by flow cytometry analysis; format: functional
DU-145 = assay: Cytotoxicity against human DU145 cells; format: functional
ACHN = assay: Cytotoxicity against human ACHN cells; format: functional
HCT-116 = assay: Cytotoxicity against human HCT116 cells; format: functional
K562 [11] = assay: Cell cycle arrest in human K562 cells assessed as accumulation in S phase at 50 uM after 24 hrs by flow cytometry analysis; format: functional
SF-539 = assay: Cytotoxicity against human SF539 cells; format: functional
K562 [12] = assay: Cell cycle arrest in human K562 cells assessed as accumulation in G2/M phase at 10 uM after 24 hrs by flow cytometry analysis; format: functional
LOX IMVI = assay: Cytotoxicity against human LOXIMVI cells; format: functional
SK-OV-3 = assay: Cytotoxicity against human SKOV3 cells; format: functional
M14 = assay: Cytotoxicity against human M14 cells; format: functional
[13] = Cytotoxicity against human […] cells; format: functional
K562 [14] = assay: Cytotoxicity against human K562 cells; format: functional
RXF 393 = assay: Cytotoxicity against human […] cells; format: functional
COLO 205 = assay: Cytotoxicity against human COLO205 cells; format: functional
HOP-62 = assay: Cytotoxicity against human HOP62 cells; format: functional
K562 [15] = assay: Cell cycle arrest in human K562 cells assessed as accumulation in G2/M phase at 20 uM after 24 hrs by flow cytometry analysis; format: functional
K562 [16] = assay: Cell cycle arrest in human K562 cells assessed as accumulation in Sub-G1 phase at 20 uM after 24 hrs by flow cytometry analysis; format: functional
SNB-19 = assay: Cytotoxicity against human SNB19 cells; format: functional
BT-549 = assay: Cytotoxicity against human BT549 cells; format: functional
CCRF-CEM = assay: Cytotoxicity against human CCRF-CEM cells; format: functional
NCI-H23 = assay: Cytotoxicity against human NCI-H23 cells; format: functional
T47D = assay: Cytotoxicity against human T47D cells; format: functional
[17] = Cytotoxicity against human Hs 578T cells; format: functional
[18] = read-out: LC50 (the source's name)

`C(#Cc1ccccc1C#Cc1ccccn1)c1ccc(OCCCCCCOc2ccc(C#Cc3ccccc3C#Cc3ccccn3)cc2)cc1` showed an Activity (K562 [1]) of 23%, a GI50 (SNB-75) of 5.13 µM and a CC50 (SNB-75; [18]) of 31.3 µM. For the same compound, the GI50 (SF-268) was 3.63 µM, the CC50 (SF-268; [18]) was 22.7 µM and the GI50 (OVCAR-3) was 2140 nM. For the same compound, the CC50 (OVCAR-3; [18]) was 21.3 µM, the GI50 (EKVX) was 4.33 µM and the CC50 (EKVX; [18]) was 22.9 µM. The GI50 (HCT-15) was 2780 nM, the CC50 (HCT-15; [18]) was 22 µM and the Activity (K562 [2]) was “Active”. For the same compound, the GI50 (SN12C) was 6.55 µM, the CC50 (SN12C; [18]) was 32.7 µM and the GI50 (OVCAR-5) was 3.56 µM. For the same compound, the CC50 (OVCAR-5; [18]) was 23.4 µM, the GI50 (OVCAR-4) was 1910 nM and the CC50 (OVCAR-4; [18]) was 23.4 µM. For the same compound, the GI50 (SK-MEL-5) was 2300 nM, the CC50 (SK-MEL-5; [18]) was 20.5 µM and the GI50 (UACC-62) was 470 nM. For the same compound, the CC50 (UACC-62; [18]) was 16.4 µM, the GI50 (786-0) was 7.45 µM and the CC50 (786-0; [18]) was > 50 µM. The GI50 (SF-295) was 1240 nM, the CC50 (SF-295; [18]) was 15.8 µM and the GI50 (A549) was 6.41 µM. It also gave a CC50 (A549; [18]) of 43.2 µM, a GI50 (SW-620) of 4 µM and a CC50 (SW-620; [18]) of 22.7 µM. The GI50 (NCI/ADR-RES) was 2300 nM, the CC50 (NCI/ADR-RES; [18]) was > 50 µM and the Activity (K562 [3]) was 15.54%. For the same compound, the GI50 (KM12) was 1380 nM, the CC50 (KM12; [18]) was 20.8 µM and the GI50 (CAKI-1) was 5.42 µM. It also gave a CC50 (CAKI-1; [18]) of 23.8 µM, a GI50 (HT-29) of 7.89 µM and a CC50 (HT-29; [18]) of 27 µM. For the same compound, the GI50 (MDA-MB-435) was 1540 nM, the CC50 (MDA-MB-435; [18]) was 21.7 µM and the GI50 (NCI-H460) was 1690 nM. It also gave a CC50 (NCI-H460; [18]) of 18.7 µM, an Activity (K562 [4]) of 13.7% and an Activity (K562 [5]) of 49.2%. It also gave a GI50 (MDA-MB-231) of 2670 nM, a CC50 (MDA-MB-231; [18]) of 23.5 µM and a GI50 (UO-31) of 8.51 µM. For the same compound, the CC50 (UO-31; [18]) was > 50 µM, the GI50 (UACC-257) was 7.11 µM and the CC50 (UACC-257; [18]) was 31.4 µM. For the same compound, the Activity (K562 [6]) was “Active”, the Activity (K562 [7]) was 59.7% and the GI50 (U-251) was 5.63 µM. The CC50 (U-251; [18]) was 24.1 µM, the GI50 (MCF7) was 1910 nM and the CC50 (MCF7; [18]) was 21.8 µM. For the same compound, the GI50 (NCI-H226) was 6.53 µM, the CC50 (NCI-H226; [18]) was 30.3 µM and the GI50 (MOLT-4) was 370 nM. It also gave a CC50 (MOLT-4; [18]) of 28 µM, a GI50 (HCC 2998) of 7.21 µM and a CC50 (HCC 2998; [18]) of 26.9 µM. It also gave an Activity (K562 [8]) of 15%, an Activity (K562 [9]) of 8.57% and a GI50 (HL-60) of 90 nM. The CC50 (HL-60; [18]) was 2700 nM, the GI50 (SK-MEL-28) was 5.73 µM and the CC50 (SK-MEL-28; [18]) was 24.3 µM. It also gave a GI50 (PC-3) of 4.46 µM, a CC50 (PC-3; [18]) of 29.2 µM and a GI50 (NCI-H522) of 2870 nM. It also gave a CC50 (NCI-H522; [18]) of 38.4 µM, an Activity (K562 [10]) of 24.9% and a GI50 (DU-145) of 6.14 µM. It also gave a CC50 (DU-145; [18]) of 24.9 µM, a GI50 (ACHN) of 1340 nM and a CC50 (ACHN; [18]) of 19.6 µM. For the same compound, the GI50 (HCT-116) was 8.69 µM, the CC50 (HCT-116; [18]) was > 50 µM and the Activity (K562 [11]) was 52.1%. It also gave a GI50 (SF-539) of 2380 nM, a CC50 (SF-539; [18]) of 21.3 µM and an Activity (K562 [12]) of 35.8%. It also gave a GI50 (LOX IMVI) of 270 nM, a CC50 (LOX IMVI; [18]) of 18.4 µM and a GI50 (SK-OV-3) of 7.05 µM. The CC50 (SK-OV-3; [18]) was 42 µM, the GI50 (M14) was 7.47 µM and the CC50 (M14; [18]) was 41.6 µM. For the same compound, the GI50 [13] was 620 nM, the CC50 [13, 18] was > 50 µM and the GI50 (K562 [14]) was 1380 nM. It also gave a CC50 (K562 [14]; [18]) of 22.8 µM, a GI50 (RXF 393) of 7.65 µM and a CC50 (RXF 393; [18]) of 27.9 µM. It also gave a GI50 (COLO 205) of 8.18 µM, a CC50 (COLO 205; [18]) of 30.9 µM and a GI50 (HOP-62) of 6.31 µM. The CC50 (HOP-62; [18]) was 38.8 µM, the Activity (K562 [15]) was 26.6% and the Activity (K562 [16]) was 8.77%. For the same compound, the GI50 (SNB-19) was 6 µM, the CC50 (SNB-19; [18]) was 26.2 µM and the GI50 (BT-549) was 3.45 µM. For the same compound, the CC50 (BT-549; [18]) was 22.7 µM, the GI50 (CCRF-CEM) was 40 nM and the CC50 (CCRF-CEM; [18]) was > 50 µM. The GI50 (NCI-H23) was 7.97 µM, the CC50 (NCI-H23; [18]) was > 50 µM and the GI50 (T47D) was 2350 nM. For the same compound, the CC50 (T47D; [18]) was > 50 µM, the GI50 [17] was 5.41 µM and the CC50 [17, 18] was 34.6 µM.

With `COc1cc2c(c(OC)c1OC)-c1ccc(OC)c(=O)cc1[C@@H](NC(C)=O)CC2` [COLCHICINE] the Activity (K562 [5]) was 16.6%, the Activity (K562 [8]) was 8.8% and the Activity (K562 [9]) was 14.59%. It also gave an Activity (K562 [12]) of 74.6%.
